Measured values reported in US8470380B2, “Polyphenol extraction process” (Coressence Limited, priority 2006, dated 2013).

Key:
[1] = (−)-Epicatechin isomerisation test (heating of an epicatechin test solution, HPLC); format: physicochemical; conditions: for Epicatechin / Epicatechin % remain: 0.688 mg/ml epicatechin solution, nitrogen-flushed sealed vial; for Other % of start / Other: calculated from 100 − (epicatechin + catechin); for Other: unit assumed; for Catechin / Catechin % of start: formed from 0.688 mg/ml epicatechin
Experimental: In order to test the possibility that epicatechin was isomerising to catechin at higher temperatures, a test solution of 0.688 mg/ml epicatechin was produced and treated as follows: 950 μl of epicatechin was transferred to an auto sampler vial, which was flushed with nitrogen and sealed. The vial was then placed in an oven at a given temperature, for a set time period. The vial was then cooled, the seal removed and 50 μl of internal standard added before analysis. Tests were carried out at 50, 75, 100 and 125° C. for 15 and 30 minutes. Tests were not carried out at 150° C. as the vials are not capable of withstanding the pressure that would be generated.

[2] = Comparison of ethanol extraction with methanol (solubility of epicatechin); format: physicochemical; conditions: ethanol compared with methanol; implied by extraction data of Table 11
Experimental: A comparative extract using 1 g of apple powder and 10 ml methanol gave a figure of 4663 mg/Kg. In order to test if the low recovery figure above was due to low solubility of epicatechin in ethanol a series of tests were performed using 10, 20 and 30:1 w/w.

Which results are given for epicatechin?
Epicatechin ([1]; 50° C. 15 min): 0.643 mg/mL; Epicatechin % remain ([1]; 50° C. 15 min): 93.53%; Epicatechin ([1]; 50° C. 30 min): 0.601 mg/mL; Epicatechin % remain ([1]; 50° C. 30 min): 87.40%; Epicatechin ([1]; 75° C. 15 min): 0.550 mg/mL; Epicatechin % remain ([1]; 75° C. 15 min): 79.92%; Epicatechin ([1]; 75° C. 30 min): 0.441 mg/mL; Epicatechin % remain ([1]; 75° C. 30 min): 64.07%; Epicatechin ([1]; 100° C. 15 min): 0.254 mg/mL; Epicatechin % remain ([1]; 100° C. 15 min): 36.97%; Epicatechin ([1]; 100° C. 30 min): 0.164 mg/mL; Epicatechin % remain ([1]; 100° C. 30 min): 23.88%; Epicatechin ([1]; 125° C. 15 min): 0.156 mg/mL; Epicatechin % remain ([1]; 125° C. 15 min): 22.71%; Epicatechin ([1]; 125° C. 30 min): 0.139 mg/mL; Epicatechin % remain ([1]; 125° C. 30 min): 20.27%; Other % of start ([1]; 50° C. 15 min): 5.40%; Other ([1]; 50° C. 15 min): 0.037 mg/mL; Other % of start ([1]; 50° C. 30 min): 10.79%; Other ([1]; 50° C. 30 min): 0.074 mg/mL; Other % of start ([1]; 75° C. 15 min): 10.59%; Other ([1]; 75° C. 15 min): 0.073 mg/mL; Other % of start ([1]; 75° C. 30 min): 19.65%; Other ([1]; 75° C. 30 min): 0.135 mg/mL; Other % of start ([1]; 100° C. 15 min): 16.36%; Other ([1]; 100° C. 15 min): 0.113 mg/mL; Other % of start ([1]; 100° C. 30 min): 26.07%; Other ([1]; 100° C. 30 min): 0.179 mg/mL; Other % of start ([1]; 125° C. 15 min): 27.94%; Other ([1]; 125° C. 15 min): 0.192 mg/mL; Other % of start ([1]; 125° C. 30 min): 36.13%; Other ([1]; 125° C. 30 min): 0.249 mg/mL; Catechin ([1]; 50° C. 15 min): 0.007 mg/mL; Catechin % of start ([1]; 50° C. 15 min): 1.07%; Catechin ([1]; 50° C. 30 min): 0.012 mg/mL; Catechin % of start ([1]; 50° C. 30 min): 1.81%; Catechin ([1]; 75° C. 15 min): 0.065 mg/mL; Catechin % of start ([1]; 75° C. 15 min): 9.49%; Catechin ([1]; 75° C. 30 min): 0.112 mg/mL; Catechin % of start ([1]; 75° C. 30 min): 16.28%; Catechin ([1]; 100° C. 15 min): 0.321 mg/mL; Catechin % of start ([1]; 100° C. 15 min): 46.68%; Catechin ([1]; 100° C. 30 min): 0.344 mg/mL; Catechin % of start ([1]; 100° C. 30 min): 50.05%; Catechin ([1]; 125° C. 15 min): 0.340 mg/mL; Catechin % of start ([1]; 125° C. 15 min): 49.36%; Catechin ([1]; 125° C. 30 min): 0.300 mg/mL; Catechin % of start ([1]; 125° C. 30 min): 43.60%; isomerisation of (−)-epicatechin ([1]; temperatures above 100° C.): rapid isomerisation; solubility of epicatechin [2]: lower solubility in ethanol than in methanol
